The values below come from patent US6825187B2, “Carbapenem derivatives of quarternary salt type” (Meiji Seika Kaisha, Ltd., priority 2000, dated 2004).

Values after ≈ are worked out from the molar mass of the structure shown. Counter-ions that a name gives are not always drawn.

The subject of one data set is B. catarrhalis W-0500. Nature of the data set: Antimicrobial activities, MIC. To be noted: inoculants 10^6 CFU/ml; for minimum inhibiting concentrations (MIC): Sensitivity Disk agar-N+5% Horse blood. It is filed as cell-based. How it is done:
(§1) The minimum inhibiting concentrations (MIC, μg/ml) of representative compounds, among the novel carbapenem derivatives of the present invention, to various pathogenic bacteria were measured in accordance with the method described in CHEMOTHERAPY, vol. 16, No. 1, 99, 1968. The culture medium for the measurement is Sensitivity Disk agar-N+5% Horse blood, and the amount of inoculants used is 10^6 CFU/ml.

The test system of a further data set is E. coli NIHJ JC-2. The data set can be described thus: Antimicrobial activities, MIC. It is filed as cell-based. To be noted: inoculants 10^6 CFU/ml; for minimum inhibiting concentrations (MIC): Sensitivity Disk agar-N+5% Horse blood. How it is done: as §1
A further data set has as its system H. influenzae PRC 2. The data set can be described thus: Antimicrobial activities, MIC. It is filed as cell-based. To be noted: inoculants 10^6 CFU/ml; for minimum inhibiting concentrations (MIC): Sensitivity Disk agar-N+5% Horse blood. The protocol: as §1
For the next data set, the system named is S. aureus 209P JC-1. The data set can be described thus: Antimicrobial activities, MIC. It is filed as cell-based. The following applies: Sensitivity Disk agar-N+5% Horse blood, inoculants 10^6 CFU/ml. The protocol:
as §1

The next data set has as its system P. vulgaris GN 7919. Nature of the data set: Antimicrobial activities, MIC. It is filed as cell-based. To be noted: inoculants 10^6 CFU/ml; for minimum inhibiting concentrations (MIC): Sensitivity Disk agar-N+5% Horse blood. How it is done: as §1
For data set [1], the system named is S. epidermidis ATCC 14990. The data set can be described thus: Antimicrobial activities, MIC. It is filed as cell-based. The following applies: inoculants 10^6 CFU/ml; for minimum inhibiting concentrations (MIC): Sensitivity Disk agar-N+5% Horse blood. How it is done:
as §1

The next data set has as its system K. pneumoniae PC 1602. Nature of the data set: Antimicrobial activities, MIC. It is filed as cell-based. The following applies: inoculants 10^6 CFU/ml; for minimum inhibiting concentrations (MIC): Sensitivity Disk agar-N+5% Horse blood. How it is done: as §1
Data set [2] relates to S. pneumoniae PRC 9 (Penicillin-hyperresistant strain). The data set can be described thus: Antimicrobial activities, MIC. It is filed as cell-based. To be noted: Sensitivity Disk agar-N+5% Horse blood, inoculants 10^6 CFU/ml. The protocol: as §1
For another data set, the system named is E. hirae ATCC 8043. Nature of the data set: Antimicrobial activities, MIC. It is filed as cell-based. The following applies: inoculants 10^6 CFU/ml; for minimum inhibiting concentrations (MIC): Sensitivity Disk agar-N+5% Horse blood. How it is done: as §1
In the next data set the test system is C. freundii GN 346. Nature of the data set: Antimicrobial activities, MIC. It is filed as cell-based. To be noted: inoculants 10^6 CFU/ml; for minimum inhibiting concentrations (MIC): Sensitivity Disk agar-N+5% Horse blood. The protocol:
as §1

The subject of data set [3] is S. aureus M 126 (Methicillin-hyperresistant strain). The data set can be described thus: Antimicrobial activities, MIC. It is filed as cell-based. To be noted: Sensitivity Disk agar-N+5% Horse blood, inoculants 10^6 CFU/ml. How it is done: as §1
A further data set relates to E. faecalis W-73. Nature of the data set: Antimicrobial activities, MIC. It is filed as cell-based. The following applies: inoculants 10^6 CFU/ml; for minimum inhibiting concentrations (MIC): Sensitivity Disk agar-N+5% Horse blood. How it is done:
as §1

For a further data set, the system named is H. influenzae PRC 44. Nature of the data set: Antimicrobial activities, MIC. It is filed as cell-based. The following applies: inoculants 10^6 CFU/ml; for minimum inhibiting concentrations (MIC): Sensitivity Disk agar-N+5% Horse blood. How it is done: as §1
The next data set concerns mice (ICR, male). Nature of the data set: Acute Toxicity Test. It is filed as in vivo. To be noted: intraveneously administered, 2000 mg/kg, one group of three mice. How it is done: The compound of Example 3 according to the present invention was intraveneously administered at a dose of 2000 mg/kg to mice (ICR, male) (one group consisting of three mice).
Where [4] appears, read: Staphylococcus aureus, read-out: minimum inhibiting concentrations (MIC).

Consider `C[C@@H](O)[C@H]1C(=O)N2C(C(=O)O)=C(SCCN=CN)C[C@H]12` [Compound A, Imipenem, reference compound], for which the MIC with B. catarrhalis W-0500 (Moraxella catarrhalis, W0500, Sensitivity Disk agar-N+5% Horse blood, read-out: minimum inhibiting concentrations (MIC)) is 0.05 µg/mL (≈ 0.167 µM); in the data set on E. coli NIHJ JC-2 (Escherichia coli, NIHJJC2, Sensitivity Disk agar-N+5% Horse blood, read-out: minimum inhibiting concentrations (MIC)) it was 0.1 µg/mL (≈ 0.334 µM); in the data set with H. influenzae PRC 2 (Haemophilus influenzae, PRC2, Sensitivity Disk agar-N+5% Horse blood, read-out: minimum inhibiting concentrations (MIC)), 0.79 µg/mL (≈ 2.64 µM); in the data set on S. aureus 209P JC-1 (setting [4]), less than 0.025 µg/mL; in the data set with P. vulgaris GN 7919 (Proteus vulgaris, GN7919, Sensitivity Disk agar-N+5% Horse blood, read-out: minimum inhibiting concentrations (MIC)), 0.1 µg/mL (≈ 0.334 µM); in data set [1] (Staphylococcus epidermidis, ATCC14990, Sensitivity Disk agar-N+5% Horse blood, read-out: minimum inhibiting concentrations (MIC)), less than 0.025 µg/mL. The MIC with K. pneumoniae PC 1602 (Klebsiella pneumoniae, PC1602, Sensitivity Disk agar-N+5% Horse blood, read-out: minimum inhibiting concentrations (MIC)) came out at 0.2 µg/mL (≈ 0.668 µM); in data set [2] (Streptococcus pneumoniae, read-out: minimum inhibiting concentrations (MIC)) it was 0.2 µg/mL (≈ 0.668 µM); with E. hirae ATCC 8043 (Enterococcus hirae, ATCC8043, Sensitivity Disk agar-N+5% Horse blood, read-out: minimum inhibiting concentrations (MIC)) it was 0.78 µg/mL (≈ 2.61 µM); with C. freundii GN 346 (Citrobacter freundii, GN346, Sensitivity Disk agar-N+5% Horse blood, read-out: minimum inhibiting concentrations (MIC)), 0.2 µg/mL (≈ 0.668 µM); in data set [3] (setting [4]) it was 25 µg/mL (≈ 83.5 µM); with E. faecalis W-73 (Enterococcus faecalis, W73, Sensitivity Disk agar-N+5% Horse blood, read-out: minimum inhibiting concentrations (MIC)) it was 0.78 µg/mL (≈ 2.61 µM). Further, in the data set with H. influenzae PRC 44 (Haemophilus influenzae, PRC44, Sensitivity Disk agar-N+5% Horse blood, read-out: minimum inhibiting concentrations (MIC)), the MIC was 12.5 µg/mL (≈ 41.8 µM).

Turning to `C[C@@H](O)[C@H]1C(=O)N2C(C(=O)[O-])=C(c3cn4c[n+](C)cc4s3)[C@H](C)[C@H]12` [Compound B, (1S,5R,6S)-6-((1R)-1-Hydroxyethyl)-1-methyl-2-(6-methylimidazo[5,1-b]thiazolium-2-yl)-1-carbapen-2-em-3-carboxylate (intramolecular salt), reference compound], the “minimum inhibiting concentrations (MIC)” value in the data set on B. catarrhalis W-0500 was less than 0.025 µg/mL; in the data set with E. coli NIHJ JC-2, less than 0.025 µg/mL; with H. influenzae PRC 2, 0.10 µg/mL; in the data set with S. aureus 209P JC-1, less than 0.025 µg/mL; in the data set with P. vulgaris GN 7919, 0.20 µg/mL; in [1], less than 0.025 µg/mL. The “minimum inhibiting concentrations (MIC)” value in the data set with K. pneumoniae PC 1602 stood at 0.10 µg/mL; in data set [2], 0.05 µg/mL; in the data set with E. hirae ATCC 8043 it was 0.78 µg/mL; with C. freundii GN 346, 0.10 µg/mL; in data set [3], 3.13 µg/mL; in the data set on E. faecalis W-73 it was 0.20 µg/mL. Also, the “minimum inhibiting concentrations (MIC)” value with H. influenzae PRC 44 turned out to be 0.39 µg/mL.

For the molecule `CSc1c2sc(C3=C(C(=O)[O-])N4C(=O)[C@H]([C@@H](C)O)[C@H]4[C@H]3C)cn2c[n+]1C` [Example 2, (1S,5R,6S)-6-((1R)-1-hydroxyethyl)-1-methyl-2-(6-methyl-7-methylthioimidazo[5,1-b]thiazolium-2-yl)-1-carbapen-2-em-3-carboxylate (intramolecular salt)], the “minimum inhibiting concentrations (MIC)” value in the data set on B. catarrhalis W-0500 was 0.025 µg/mL; in the data set with E. coli NIHJ JC-2, 0.025 µg/mL; in the data set on H. influenzae PRC 2, 0.05 µg/mL; in the data set with S. aureus 209P JC-1, less than 0.025 µg/mL; in the data set with P. vulgaris GN 7919 it was 0.20 µg/mL; in [1] it was less than 0.025 µg/mL. The “minimum inhibiting concentrations (MIC)” value with K. pneumoniae PC 1602 came out at 0.10 µg/mL; in [2], 0.025 µg/mL; with E. hirae ATCC 8043 it was 0.78 µg/mL; with C. freundii GN 346, 0.10 µg/mL; in data set [3], 1.56 µg/mL; in the data set with E. faecalis W-73 it was 0.20 µg/mL. Moreover, the “minimum inhibiting concentrations (MIC)” value with H. influenzae PRC 44 stood at 0.20 µg/mL.

`CSc1c2sc(C3=C(C(=O)[O-])N4C(=O)[C@H]([C@@H](C)O)[C@H]4[C@H]3C)cn2c[n+]1CC(N)=O` [Example 3, (1S,5R,6S)-2-(6-carbamoylmethyl-7-methylthioimidazo[5,1-b]thiazolium-2-yl)-6-((1R)-1-hydroxyethyl)-1-methyl-1-carbapen-2-em-3-carboxylate (intramolecular salt)]: the “minimum inhibiting concentrations (MIC)” value in the data set on B. catarrhalis W-0500 is 0.025 µg/mL; with E. coli NIHJ JC-2 it was 0.025 µg/mL; in the data set with H. influenzae PRC 2, 0.05 µg/mL; with S. aureus 209P JC-1, less than 0.025 µg/mL; in the data set on P. vulgaris GN 7919, 0.20 µg/mL; in data set [1], less than 0.025 µg/mL. For the same molecule, the “minimum inhibiting concentrations (MIC)” value turned out to be 0.10 µg/mL in the data set with K. pneumoniae PC 1602; 0.025 µg/mL in [2]; 0.39 µg/mL in the data set on E. hirae ATCC 8043; 0.20 µg/mL in the data set on C. freundii GN 346; 1.56 µg/mL in data set [3]; 0.20 µg/mL in the data set on E. faecalis W-73. Further, the “minimum inhibiting concentrations (MIC)” value in the data set with H. influenzae PRC 44 came to 0.20 µg/mL. For the same molecule, in the data set with mice (ICR, male), the “survival in acute toxicity test” value is given as “all the mice survived”.

For `CSc1c2sc(C3=C(C(=O)[O-])N4C(=O)[C@H]([C@@H](C)O)[C@H]4[C@H]3C)cn2c[n+]1CCCN.Cl` [Example 14, (1S,5R,6S)-2-[6-(3-aminopropyl)-7-methylthioimidazo[5,1-b]thiazolium-2-yl]-6-((1R)-1-hydroxyethyl)-1-methyl-1-carbapen-2-em-3-carboxylate (intramolecular salt) hydrochloride], the “minimum inhibiting concentrations (MIC)” value in the data set with B. catarrhalis W-0500 was 0.025 µg/mL; in the data set on E. coli NIHJ JC-2 it was 0.05 µg/mL; with H. influenzae PRC 2, 0.05 µg/mL; with S. aureus 209P JC-1, less than 0.025 µg/mL; in the data set with P. vulgaris GN 7919 it was 0.39 µg/mL; in [1], less than 0.025 µg/mL. Besides, the “minimum inhibiting concentrations (MIC)” value with K. pneumoniae PC 1602 was 0.10 µg/mL; in data set [2] it was 0.025 µg/mL; in the data set with E. hirae ATCC 8043, 0.39 µg/mL; in the data set on C. freundii GN 346 it was 0.10 µg/mL; in data set [3], 0.39 µg/mL; in the data set on E. faecalis W-73, 0.20 µg/mL. In addition, in the data set on H. influenzae PRC 44, the “minimum inhibiting concentrations (MIC)” value turned out to be 0.78 µg/mL.

Regarding `CSc1c2sc(C3=C(C(=O)[O-])N4C(=O)[C@H]([C@@H](C)O)[C@H]4[C@H]3C)cn2c[n+]1C[C@H](O)CN.Cl` [Example 99, (1S,5R,6S)-2-[6-((2R)-3-amino-2-hydroxy)propyl-7-methylthioimidazo[5,1-b]thiazolium-2-yl]-6-((1R)-1-hydroxyethyl)-1-methyl-1-carbapen-2-em-3-carboxylate (intramolecular salt) hydrochloride], the “minimum inhibiting concentrations (MIC)” value in the data set on B. catarrhalis W-0500 is 0.05 µg/mL; in the data set on E. coli NIHJ JC-2 it was 0.05 µg/mL; in the data set on H. influenzae PRC 2, 0.10 µg/mL; in the data set with S. aureus 209P JC-1, less than 0.025 µg/mL; with P. vulgaris GN 7919, 0.39 µg/mL; in data set [1], less than 0.025 µg/mL. For the same molecule, the “minimum inhibiting concentrations (MIC)” value turned out to be 0.10 µg/mL in the data set on K. pneumoniae PC 1602; 0.05 µg/mL in data set [2]; 0.39 µg/mL in the data set with E. hirae ATCC 8043; 0.20 µg/mL with C. freundii GN 346; 0.78 µg/mL in data set [3]; 0.20 µg/mL with E. faecalis W-73. In addition, in the data set with H. influenzae PRC 44, the “minimum inhibiting concentrations (MIC)” value was found to be 0.78 µg/mL.
